Measurements from patent publication EP0587396A1, “Use of hypoxoside derivatives for the treatment of viral infections” (VIROSTAT (NA) NV, priority 1992, dated 1994).
Like-named read-outs stand apart in the source and are kept apart here.

Legend:
[1] = system: human immunodeficiency virus type 1 (HIV-1); experiment: Inhibition of HIV-1 proliferation in PHA-activated human PBL's (p24 core protein by Sandwich ELISA, HIV RNA by labelled DNA probe hybridization); format: cell-based; conditions: for inhibition of p24 core protein production: 10 ng/mℓ
Protocol: Compounds I - XXVIII were subjected to in vitro testing for inhibition of human immunodeficiency virus type 1 (HIV-1) proliferation as follows:
Human peripheral blood lymphocytes (PBL's) obtained by density gradient centrifugation of blood from healthy volunteers at a blood bank were pooled and used for the propagation of HIV-1 in vitro.
The PBL's were polyclonally activated with phytohaemagglutinin (PHA) and subjected to quality controls whereby their viability was tested with Trypan blue exclusion and the expression of activation antigens, CD4⁺ and CD25⁺ was measured by immunofluorescence. Prior to adding the test substance, the activated PBL's were exposed to a standardized titre of HIV-1 virus and after incubation for 60 minutes the cells were washed twice and plated into microtitre plates at a concentration of 2X10⁶ cells/well. The medium contained interleukin-2 and in control wells the virus produced between 50 and 100 ng/mℓ of p24 core protein on day 4. The test substance was added to these cultures either in water or dimethyl sulphoxide (DMSO) depending on solubility characteristics. The final DMSO concentration, when used, was always 1% v/v.
HIV replication was measured as the production of p24 core protein and the production of HIV RNA on days 2, 3 and 4, or on days 3, 4, 5 and 6. Core protein p24 was measured using 'Sandwich ELISA' technology using inter alia a monoclonal antibody against p24 core protein. The HIV RNA was measured using a specific labelled DNA probe against HIV RNA and the process of hybridization.
Results were expressed as percent inhibition of HIV-1 p24 core protein production or RNA production on days 3, 4 or 6.
In each test, cells were also exposed to HIV-1 and 3'-azido-3'-deoxythymidine (also known as Zidovudine or AZT) at 100, 10, 1 and 0.1 ng/mℓ. This was a positive control and compounds tested were compared to the inhibitory effect of 10 ng/mℓ AZT.
In all of the following Tables, percentage inhibition refers to inhibition of p24 core protein production and HIV RNA production relative to infected controls. Percentage AZT inhibition refers to inhibition caused by 10 ng/mℓ AZT at the end of the experiment, i.e. after 4 or 6 days.

[2] = Toxicity: lymphocyte proliferation assay with MTT in the HIV-1 infected PBL cultures; format: cell-based; conditions: human, pbls
Protocol: Possible toxic effects of the test substances were measured by viability testing using Trypan blue or a proliferation assay using3-(4,5-dimethylthiazol-2-yl)-2,5-diphenyl-2H-tetrazolium bromide (MTT) on day 4 or day 6 after initiation of the experiment (Borenfreund et al: Toxicol. In Vitro, 1988, 2, 1-6).
The toxicity of the drug was expressed as a percentage inhibition of lymphocyte proliferation as measured with MTT and compared with controls receiving the virus but no drug.

[3] = system: CD4⁺ cells; conditions: standard doses (250 mg/4 hours) and reduced doses (100 mg/4 hours) for 30 months; Fisch et al; cited from earlier work

Q: With `OC[C@H]1O[C@@H](Oc2ccc(C#CC/C=C/c3ccc(O[C@@H]4O[C@H](CO)[C@@H](O)[C@H](O)[C@H]4O)c(O)c3)cc2O)[C@H](O)[C@@H](O)[C@@H]1O` [Compound V, E-1,5-bis(3'-hydroxy-4'-O-β-D-glucopyranosylphenyl)pent-4-en-1-yne] as the compound, how does the “% inhibition:p24 core protein” value ([1]; 6.25 µg/mℓ, dissolved in water, after 6 days, standard titre of HIV-1) read?
A: The value was 5%.

Q: And the “% inhibition:p24 core protein” value ([1]; 12.5 µg/mℓ, dissolved in water, after 6 days, standard titre of HIV-1)?
A: Its value is 5%.

Q: What about the “% inhibition:p24 core protein” value ([1]; 25 µg/mℓ, dissolved in water, after 6 days, standard titre of HIV-1) of the same compound?
A: Its value is 9%.

Q: And the “% inhibition:p24 core protein” value ([1]; 25 µg/ℓ, viral titre lowered ten-fold)?
A: The value was 90%.

Q: What about the inhibition at 6.25 µg/mL ([1]; Human immunodeficiency virus 1, 144 h, read-out: % inhibition: HIV-RNA, 6.25 µg/mℓ, dissolved in water, after 6 days, standard titre of HIV-1) of the same compound?
A: Its inhibition at 6.25 µg/mL is 42%.

Q: What about the inhibition at 12.5 µg/mL ([1]; Human immunodeficiency virus 1, 144 h, read-out: % inhibition: HIV-RNA, 12.5 µg/mℓ, dissolved in water, after 6 days, standard titre of HIV-1) of the same compound?
A: Its inhibition at 12.5 µg/mL is 65%.

Q: What about the inhibition at 25 µg/mL ([1]; Human immunodeficiency virus 1, 144 h, read-out: % inhibition: HIV-RNA, 25 µg/mℓ, dissolved in water, after 6 days, standard titre of HIV-1) of the same compound?
A: The inhibition at 25 µg/mL was 83%.

Q: And the inhibition at 50 µg/mL ([1]; Human immunodeficiency virus 1, 144 h, read-out: % inhibition: HIV-RNA, 50 µg/mℓ, dissolved in water, after 6 days, standard titre of HIV-1)?
A: The inhibition at 50 µg/mL was 100%.

Q: What about the inhibition at 0.00625 µg/mL ([1]; Human immunodeficiency virus 1, read-out: % inhibition:HIV-RNA, 6.25 µg/ℓ, viral titre lowered ten-fold) of the same compound?
A: The inhibition at 0.00625 µg/mL was 0%.

Q: And the inhibition at 0.0125 µg/mL ([1]; Human immunodeficiency virus 1, read-out: % inhibition:HIV-RNA, 12.5 µg/ℓ, viral titre lowered ten-fold)?
A: Its inhibition at 0.0125 µg/mL is 11%.

Q: And the inhibition at 0.025 µg/mL ([1]; Human immunodeficiency virus 1, read-out: % inhibition:HIV-RNA, 25 µg/ℓ, viral titre lowered ten-fold)?
A: Its inhibition at 0.025 µg/mL is 97%.

Q: What about the inhibition at 0.05 µg/mL ([1]; Human immunodeficiency virus 1, read-out: % inhibition:HIV-RNA, 50 µg/ℓ, viral titre lowered ten-fold) of the same compound?
A: Its inhibition at 0.05 µg/mL is 99%.

Q: And the viability ([2]; 6.25 µg/mℓ, dissolved in water, standard titre of HIV-1, read-out: Proliferation as a percentage of control value)?
A: The viability was 94%.

Q: And the viability ([2]; 6.25 µg/ℓ, viral titre lowered ten-fold, read-out: Proliferation as a percentage of control value)?
A: The viability was 94%.

Q: What about the viability ([2]; 12.5 µg/mℓ, dissolved in water, standard titre of HIV-1, read-out: Proliferation as a percentage of control value) of the same compound?
A: Its viability is 94%.

Q: And the viability ([2]; 12.5 µg/ℓ, viral titre lowered ten-fold, read-out: Proliferation as a percentage of control value)?
A: Its viability is 94%.

Q: And the viability ([2]; 25 µg/mℓ, dissolved in water, standard titre of HIV-1, read-out: Proliferation as a percentage of control value)?
A: The viability was 93%.

Q: And the viability ([2]; 25 µg/ℓ, viral titre lowered ten-fold, read-out: Proliferation as a percentage of control value)?
A: The viability was 93%.

Q: What about the viability ([2]; 50 µg/mℓ, dissolved in water, standard titre of HIV-1, read-out: Proliferation as a percentage of control value) of the same compound?
A: The viability was 82%.

Q: And the viability ([2]; 50 µg/ℓ, viral titre lowered ten-fold, read-out: Proliferation as a percentage of control value)?
A: The viability was 82%.

Q: For `Cc1cn([C@H]2C[C@H](N=[N+]=[N-])[C@@H](CO)O2)c(=O)[nH]c1=O` [AZT, 3'-azido-3'-deoxythymidine, reference compound], which “inhibition of p24 core protein production” value ([1]; positive control of Table 2 (6 days, standard titre)) is on record?
A: Its value is 20%.

Q: And the “inhibition of p24 core protein production” value ([1]; positive control of Table 4 (after 3 days))?
A: The value was 50%.

Q: And the “inhibition of p24 core protein production” value ([1]; positive control of Table 5 (after 6 days))?
A: The value was 50%.

Q: What about the “inhibition of p24 core protein production” value ([1]; positive control of Table 6 (6 days, standard viral titre)) of the same compound?
A: The value was 20%.

Q: What about the “inhibition of p24 core protein production” value ([1]; positive control of Table 8 (3 days incubation)) of the same compound?
A: Its value is 50%.

Q: What about the “inhibition of p24 core protein production” value ([1]; positive control of Table 12 (3 days incubation)) of the same compound?
A: The value was 50%.

Q: What about the inhibition at 0.01 µg/mL ([1]; Human immunodeficiency virus 1, 72 h, read-out: inhibition of HIV-RNA production, 10 ng/mℓ, positive control of Table 4 (after 3 days)) of the same compound?
A: Its inhibition at 0.01 µg/mL is 46%.

Q: And the inhibition at 0.01 µg/mL ([1]; Human immunodeficiency virus 1, 72 h, read-out: inhibition of HIV-RNA production, 10 ng/mℓ, positive control of Table 8 (3 days incubation))?
A: Its inhibition at 0.01 µg/mL is 46%.

Q: And the inhibition at 0.01 µg/mL ([1]; Human immunodeficiency virus 1, 72 h, read-out: inhibition of HIV-RNA production, 10 ng/mℓ, positive control of Table 12 (3 days incubation))?
A: The inhibition at 0.01 µg/mL was 46%.

Q: What about the inhibition at 0.01 µg/mL ([1]; Human immunodeficiency virus 1, 96 h, read-out: inhibition of HIV RNA production, 10 ng/mℓ, positive control of the crude extract test (4 days)) of the same compound?
A: The inhibition at 0.01 µg/mL was 96%.

Q: And the inhibition at 0.01 µg/mL ([1]; Human immunodeficiency virus 1, 96 h, read-out: inhibition of HIV-RNA production, 10 ng/mℓ, day 4, positive control of Table 13)?
A: The inhibition at 0.01 µg/mL was 100%.

Q: And the inhibition at 0.01 µg/mL ([1]; Human immunodeficiency virus 1, 96 h, read-out: inhibition of HIV-RNA production, 10 ng/mℓ, positive control of Table 11 (4 days))?
A: The inhibition at 0.01 µg/mL was 97%.

Q: What about the inhibition at 0.01 µg/mL ([1]; Human immunodeficiency virus 1, 144 h, read-out: inhibition of HIV-RNA production, 10 ng/mℓ, day 6, positive control of Table 13) of the same compound?
A: The inhibition at 0.01 µg/mL was 100%.

Q: And the inhibition at 0.01 µg/mL ([1]; Human immunodeficiency virus 1, 144 h, read-out: inhibition of HIV-RNA production, 10 ng/mℓ, positive control of Table 2 (6 days, standard titre))?
A: Its inhibition at 0.01 µg/mL is 68%.

Q: What about the inhibition at 0.01 µg/mL ([1]; Human immunodeficiency virus 1, 144 h, read-out: inhibition of HIV-RNA production, 10 ng/mℓ, positive control of Table 5 (after 6 days)) of the same compound?
A: Its inhibition at 0.01 µg/mL is 46%.

Q: And the inhibition at 0.01 µg/mL ([1]; Human immunodeficiency virus 1, 144 h, read-out: inhibition of HIV-RNA production, 10 ng/mℓ, positive control of Table 6 (6 days, standard viral titre))?
A: Its inhibition at 0.01 µg/mL is 68%.

Q: And the inhibition at 0.01 µg/mL ([1]; Human immunodeficiency virus 1, 144 h, read-out: inhibition of HIV-RNA production, 10 ng/mℓ, positive control of Table 8 continued (6 days incubation))?
A: Its inhibition at 0.01 µg/mL is 92%.

Q: And the inhibition at 0.01 µg/mL ([1]; Human immunodeficiency virus 1, 144 h, read-out: inhibition of HIV-RNA production, 10 ng/mℓ, positive control of Table 9 (6 days))?
A: The inhibition at 0.01 µg/mL was 92%.

Q: What about the inhibition at 0.01 µg/mL ([1]; Human immunodeficiency virus 1, 144 h, read-out: inhibition of HIV-RNA production, 10 ng/mℓ, positive control of Table 10 (6 days)) of the same compound?
A: Its inhibition at 0.01 µg/mL is 92%.

Q: What about the inhibition at 0.01 µg/mL ([1]; Human immunodeficiency virus 1, read-out: inhibition of HIV-RNA production, 10 ng/mℓ, positive control of Table 7 (ten-fold dilution of standard viral titre)) of the same compound?
A: The inhibition at 0.01 µg/mL was 99%.

Q: And the inhibition at 0.01 µg/mL ([1]; Human immunodeficiency virus 1, read-out: inhibition of HIV-RNA, 10 ng/mℓ, positive control of Table 3 (viral titre lowered ten-fold))?
A: Its inhibition at 0.01 µg/mL is 99%.

Q: And the “transient mean increase of CD4⁺ cells” value [3]?
A: Its value is 25 cells/mm³ of blood.

Q: With `O=S(=O)(O)Oc1ccc(C#CC/C=C/c2ccc(OS(=O)(=O)O)cc2)cc1` [Compound XVIII] as the compound, how does the “% inhibition:p24 core protein” value ([1]; 50 µg/mℓ, after 6 days) read?
A: The value was 79%.

Q: And the inhibition at 50 µg/mL ([1]; Human immunodeficiency virus 1, 144 h, read-out: % inhibition:HIV-RNA, 50 µg/mℓ, after 6 days)?
A: The inhibition at 50 µg/mL was 87%.

Q: What about the inhibition at 100 µg/mL ([1]; Human immunodeficiency virus 1, 144 h, read-out: % inhibition:HIV-RNA, 100 µg/mℓ, after 6 days) of the same compound?
A: The inhibition at 100 µg/mL was 100%.

Q: What about the viability ([2]; 50 µg/mℓ, Table 10 (6 days), read-out: Proliferation as a percentage of control value) of the same compound?
A: The viability was 63%.

Q: And the viability ([2]; 100 µg/mℓ, Table 10 (6 days), read-out: Proliferation as a percentage of control value)?
A: Its viability is 50%.
